US20240366571A1, “MODULATORS OF SK4 POTASSIUM CHANNEL AND USES THEREOF” (Ramot at Tel-Aviv University Ltd., priority 2022, published 2024)
Entries after “also recorded” stand apart in the source; their conditions may differ.

Target: T1, human SK4 (Homo sapiens, UniProt O15554)
T1 construct: expressed in transfected cells; host or cells: CHO cells
Assay: Whole-cell patch-clamp of WT SK4 K+ currents in transfected CHO cells
Format: cell-based
Conditions: 20 μM, whole-cell
Description: Constructs: For CHO cell transfection, the following were cloned: human SK1, rat SK2, human SK3, and rat calmodulin into the pcDNA3 vector, human SK4 into pEGFP-C1 vector, and PIP4,5-kinase into an IRES-dsRed plasmid. The mutations were introduced using the PCR-based QuikChange™ site-directed mutagenesis (Stratagene®) and were verified by full sequencing of the entire plasmid vector.
Cell Culture and Transfection: Chinese hamster ovary (CHO) cells were grown in Dulbecco's modified Eagle's medium supplemented with 2 millimolar (mM) glutamine, 10% fetal calf serum, and antibiotics. In brief, 40,000 cells seeded on poly-L-lysine-coated glass coverslips (13 millimeter (mm) in diameter) in a 24-multiwell plate were transfected with 0.5 microgram (μg) pEGFP-SK4/0.5 μg mutant SK4, 1.2 μg dsRed-PIP4,5-kinase or with 1 μg SK1/SK2/SK3 together with pIRES-CD8 (0.3 μg) as a marker for transfection. Transfection was performed using TransIT-LT1 Transfection Reagent (Mirus Bio) according to the manufacturer's protocol. For electrophysiology, transfected cells were visualized approximately 40 hours after transfection with a Zeiss Axiovert 35 inverted florescence microscope.
Whole-cell patch-clamp recording: Voltage-clamp recordings were performed using the whole-cell configuration of the patch-clamp technique. Signals were amplified using an […] patch-clamp amplifier (Molecular Devices), sampled at 5 kHz and filtered at 2.4 kHz via a four pole Bessel low pass filter. Data were acquired using pClamp™ 10.5 software in conjunction with an Axon™ DigiData® 1440A interface (Molecular Devices). The patch pipettes were pulled from borosilicate glass (Harvard Apparatus) with a resistance of 3-5 megaohms (MΩ). The intracellular pipette solution contained 130 mM KCl, 5 mM EGTA, 10 mM HEPES, pH 7.3 (adjusted with KOH), and CaCl2 calculated for a final concentration of 1 μM free-Ca^2+, by MAXCHELATOR (WEBMAXC STANDARD) software, with sucrose added to adjust osmolarity to 290 mosM. The external solution (310 mosM) contained 140 mM NaCl, 4 mM KCl, 1.8 mM CaCl2, 1.2 mM MgCl2, 11 mM glucose, and 5.5 mM HEPES adjusted with NaOH to pH 7.3. CHO cells were held at −90 millivolt (mV) and SK4 K^+ currents were activated using a voltage ramp protocol from −100 mV to +60 mV for 150 milliseconds. Electrophysiological data analysis was performed using the Clampfit program (pClamp™ 10.5; Molecular Devices).
Some of the compounds were tested by comparing trace of WT SK4 channel currents in the absence and presence of 20 μM of the tested compound.

Row | Structure (SMILES) | inhibition of WT SK4 currents
1 | CCCCCCCn1c(=O)[nH]c2ccccc21 [BA6B, 1-heptyl-1,3-dihydro-2H-benzo[d]imidazol-2-one] | about 25%

Same assay, conditions: CHO, 20 μM, whole-cell

Row | Structure (SMILES) | inhibition at 20 µM [%]
2 | CCCCCCCn1c(=O)[nH]c2ccccc21 [BA6B, 1-heptyl-1,3-dihydro-2H-benzo[d]imidazol-2-one] | 25

Same assay, conditions: WT SK4 currents in absence and presence of 20 μM compound

Row | Structure (SMILES) | SK4 K+ channel modulating activity
3 | Cn1c(=O)n(C)c2ccccc21 [BA2A, 1,3-dimethyl-1,3-dihydro-2H-benzo[d]imidazol-2-one] | Inactive
4 | Cc1ccc2c(c1)n(C)c(=O)n2C [BA2OC1c, 1,3,5-trimethyl-1,3-dihydro-2H-benzo[d]imidazol-2-one] | Inactive
5 | CCCn1c(=O)n(CCC)c2cc(C)ccc21 [BA2OC3c, 5-methyl-1,3-dipropyl-1,3-dihydro-2H-benzo[d]imidazol-2-one] | Inactive
6 | CCCn1c(=O)n(CCC)c2ccccc21 [BA3A, 1,3-dipropyl-1,3-dihydro-2H-benzo[d]imidazol-2-one] | Inactive
7 | CCCn1c(=O)[nH]c2ccccc21 [BA3B, 1-propyl-1,3-dihydro-2H-benzo[d]imidazol-2-one] | Inactive
8 | CCCCCn1c(=O)n(CCCCC)c2ccccc21 [BA4A, 1,3-dipentyl-1,3-dihydro-2H-benzo[d]imidazol-2-one] | Inactive
9 | CCCCCn1c(=O)[nH]c2ccccc21 [BA4B, 1-pentyl-1,3-dihydro-2H-benzo[d]imidazol-2-one] | inhibition; also recorded: Inhibitor
10 | CCCCCCn1c(=O)n(CCCCCC)c2ccccc21 [BA5A, 1,3-dihexyl-1,3-dihydro-2H-benzo[d]imidazol-2-one] | Inactive
11 | CCCCCCn1c(=O)[nH]c2ccccc21 [BA5B, 1-hexyl-1,3-dihydro-2H-benzo[d]imidazol-2-one] | inhibition; also recorded: Inhibitor
12 | CCCCCCCn1c(=O)n(CCCCCCC)c2ccccc21 [BA6A, 1,3-diheptyl-1,3-dihydro-2H-benzo[d]imidazol-2-one] | Inactive
13 | CCCCCCCn1c(=O)[nH]c2ccccc21 [BA6B, 1-heptyl-1,3-dihydro-2H-benzo[d]imidazol-2-one] | inhibited; also recorded: inhibition; also recorded: Inhibitor
14 | CCCCCCCCn1c(=O)n(CCCCCCCC)c2ccccc21 [BA7A, 1,3-dioctyl-1,3-dihydro-2H-benzo[d]imidazol-2-one] | Inactive
15 | CCCCCCCCn1c(=O)[nH]c2ccccc21 [BA7B, 1-octyl-1,3-dihydro-2H-benzo[d]imidazol-2-one] | Inactive
16 | CCCCCCCCCCn1c(=O)n(CCCCCCCCCC)c2ccccc21 [BA8A, 1,3-didecyl-1,3-dihydro-2H-benzo[d]imidazol-2-one] | Inactive
17 | CCCCCCCCCCn1c(=O)[nH]c2ccccc21 [BA8B, 1-decyl-1,3-dihydro-2H-benzo[d]imidazol-2-one] | Inactive
18 | CCCCCCCCCCCCn1c(=O)n(CCCCCCCCCCCC)c2ccccc21 [BA9A, 1,3-didodecyl-1,3-dihydro-2H-benzo[d]imidazol-2-one] | Inactive
19 | Cc1ccc2[nH]c(=O)[nH]c2c1 [BA20, 5-methyl-1,3-dihydro-2H-benzo[d]imidazol-2-one] | Inactive
20 | CCCCCn1c(=O)n(CCCCC)c2cc(C)ccc21 [BA23, 5-methyl-1,3-dipentyl-1,3-dihydro-2H-benzo[d]imidazol-2-one] | Inactive
21 | CCCCCCn1c(=O)n(CCCCCC)c2cc(C)ccc21 [BA26, 1,3-dihexyl-5-methyl-1,3-dihydro-2H-benzo[d]imidazol-2-one] | Inactive
22 | CCCCCCCn1c(=O)n(CCCCCCC)c2cc(C)ccc21 [BA29, 1,3-diheptyl-5-methyl-1,3-dihydro-2H-benzo[d]imidazol-2-one] | Inactive
23 | Cc1cccc2[nH]c(=O)[nH]c12 [BA30, 4-methyl-1,3-dihydro-2H-benzo[d]imidazol-2-one] | Inactive
24 | CCCCCn1c(=O)n(CCCCC)c2cc(Cl)c(Cl)cc21 [BA42, 5,6-dichloro-1,3-dipentyl-1,3-dihydro-2H-benzo[d]imidazol-2-one] | Inactive
25 | CCCCCCn1c(=O)n(CCCCCC)c2cc(Cl)c(Cl)cc21 [BA44, 5,6-dichloro-1,3-dihexyl-1,3-dihydro-2H-benzo[d]imidazol-2-one] | Inactive
26 | CCCCCCCn1c(=O)n(CCCCCCC)c2cc(Cl)c(Cl)cc21 [BA46, 5,6-dichloro-1,3-diheptyl-1,3-dihydro-2H-benzo[d]imidazol-2-one] | Inactive
27 | Cc1cc2[nH]c(=O)[nH]c2cc1C [BA50, 5,6-dimethyl-1,3-dihydro-2H-benzo[d]imidazol-2-one] | Inactive
28 | CCCCCCn1c(=O)n(CCCCCC)c2cc(C)c(C)cc21 [BA54, 1,3-dihexyl-5,6-dimethyl-1,3-dihydro-2H-benzo[d]imidazol-2-one] | Inactive
29 | CCCCCCCn1c(=O)n(CCCCCCC)c2cc(C)c(C)cc21 [BA56, 1,3-diheptyl-5,6-dimethyl-1,3-dihydro-2H-benzo[d]imidazol-2-one] | Inactive
30 | CCCCCn1c(=O)n(CCCCC)c2cc(F)ccc21 [BA63, 5-fluoro-1,3-dipentyl-1,3-dihydro-2H-benzo[d]imidazol-2-one] | Inactive
31 | CCCCCCn1c(=O)n(CCCCCC)c2cc(F)ccc21 [BA66, 5-fluoro-1,3-dihexyl-1,3-dihydro-2H-benzo[d]imidazol-2-one] | Inactive
32 | CCCCCCCn1c(=O)n(CCCCCCC)c2cc(F)ccc21 [BA69, 5-fluoro-1,3-diheptyl-1,3-dihydro-2H-benzo[d]imidazol-2-one] | Inactive

Same assay, conditions: dose-dependent inhibition of WT SK4 channels; read-out: SK4 K+ channel modulating activity (IC50)

Row | Structure (SMILES) | IC50 [µM]
33 | CCCCCCCn1c(=O)[nH]c2ccccc21 [BA6B, 1-heptyl-1,3-dihydro-2H-benzo[d]imidazol-2-one] | 50
